# Source: US10878939B2, “Methods and compositions for personalized pain management” (Children's Hospital Medical Center, priority 2014, dated 2020)
# System: children undergoing tonsillectomy
# Assay: Postoperative analgesia measurements by ABCB1 genotype (Example 7)
# Details: for Maximum FLACC: median (IQR); for Post-Operative morphine: patients with at least one post-operative intervention
# [1] = Blacks, ABCB1 Rs1128503 CC, N=24
# [2] = Blacks, ABCB1 Rs1128503 TC, N=18
# [3] = Blacks, ABCB1 Rs1128503 TT, N=2
# [4] = Blacks, ABCB1 Rs2032582 GA, N=1
# [5] = Blacks, ABCB1 Rs2032582 GG, N=35
# [6] = Blacks, ABCB1 Rs2032582 GT, N=8
# [7] = Blacks, ABCB1 Rs2229109 CA, N=1
# [8] = Blacks, ABCB1 Rs2229109 CC, N=43
# [9] = Blacks, ABCB1 Rs9282564 AA, N=41
# [10] = Blacks, ABCB1 Rs9282564 GA, N=3
# [11] = Blacks, ABCB1 rs10456542 CC, N=27
# [12] = Blacks, ABCB1 rs10456542 TC, N=14
# [13] = Blacks, ABCB1 rs10456542 TT, N=3
# [14] = Whites, ABCB1 Rs1128503 CC, N=70
# [15] = Whites, ABCB1 Rs1128503 TC, N=102
# [16] = Whites, ABCB1 Rs1128503 TT, N=47
# [17] = Whites, ABCB1 Rs2032582 GA, N=7
# [18] = Whites, ABCB1 Rs2032582 GG, N=65
# [19] = Whites, ABCB1 Rs2032582 GT, N=100
# [20] = Whites, ABCB1 Rs2032582 TA, N=1
# [21] = Whites, ABCB1 Rs2032582 TT, N=46
# [22] = Whites, ABCB1 Rs2229109 CA, N=14
# [23] = Whites, ABCB1 Rs2229109 CC, N=205
# [24] = Whites, ABCB1 Rs9282564 AA, N=171
# [25] = Whites, ABCB1 Rs9282564 GA, N=46
# [26] = Whites, ABCB1 Rs9282564 GG, N=2
# [27] = Whites, ABCB1 rs10456542 CC, N=49
# [28] = Whites, ABCB1 rs10456542 TC, N=100
# [29] = Whites, ABCB1 rs10456542 TT, N=70
# Method: All participants received standard perioperative care. Anesthesia was induced using sevoflurane followed by a propofol (2 mg/kg) bolus to facilitate endotracheal intubation. Anesthesia was maintained with sevoflurane without the use of neuromuscular blockade. […] All children receive prophylactic ondansetron (0.1 mg/kg) and dexamethasone (0.1 mg/kg) intraoperatively.
# Blood was collected from each participant in the operating room under anesthesia and the DNA was isolated the same day and stored at −20 degree Celsius. Batched genotyping was performed after clinical data was entered on all study participants. The TaqMan allelic discrimination system assays and Genotyper Softerware Version 1.0.1 (Life Technologies, Applied Biosystems, Forest City, Calif.) were used to analyse and report the following ABCB1 polymorphisms: rs1045642, rs2032582, rs1128503, rs2229109, and rs9282564.
# Prior to analysis, data qualities were examined. For the ABCB1 variants, allelic and genotype frequencies were assessed in white and black patients separately, and Hardy Weinberg equilibrium (HWE) was tested. To analyze binary outcomes (RD, prolonged PACU secondary to RD and analgesic intervention need), logistic regression was performed. […] Thus, maximum FLACC scores were analyzed using a zero-inflated negative binomial model to appropriately capture the distribution of this variable. […] To select the best fitting model, log likelihood, Akaike and Bayesian Information criterion were compared, and residuals were examined. […] To assess the single SNP association with the outcomes, additive models were used, in which the genotypes were recoded and tested as continuous variables. For the four bi-allelic SNPs, genotypes were recoded to 0, 1 and 2 according to the number of minor alleles. For rs2032582, GG genotype was recoded as 0; GA and GT genotypes were combined and recoded as 1, and TT and TA genotypes as 2. Statistical modeling was conducted with white and black patients separately and combined. When races were combined, the effects of race and race*SNP interaction were tested.
compound,measurement,setting,value
CN1CC[C@]23c4c5ccc(O)c4O[C@H]2[C@@H](O)C=C[C@H]3[C@H]1C5 [morphine],median of maximum FLACC scores,263 patients,3
same,patients who needed analgesic intervention(s),263 patients,62%
same,Analges. % (analgesic interventions %),[1],88%
same,Maximum FLACC,[1],5 (4-8)
same,Post-Operative morphine,"Blacks, ABCB1 Rs1128503 CC, N=24, mean ± SD",0.12 ± 0.08 mg/kg
same,Analges. % (analgesic interventions %),[2],89%
same,Maximum FLACC,[2],6 (3-9)
same,Post-Operative morphine,"Blacks, ABCB1 Rs1128503 TC, N=18, mean ± SD",0.13 ± 0.05 mg/kg
same,Analges. % (analgesic interventions %),[3],100%
same,Maximum FLACC,[3],4 (0-8)
same,Post-Operative morphine,"Blacks, ABCB1 Rs1128503 TT, N=2, mean ± SD",0.08 ± 0.03 mg/kg
same,Analges. % (analgesic interventions %),[4],100%
same,Maximum FLACC,[4],4 (4-4)
same,Post-Operative morphine,[4],0.08 mg/kg
same,Analges. % (analgesic interventions %),[5],91%
same,Maximum FLACC,[5],5 (3-8)
same,Post-Operative morphine,"Blacks, ABCB1 Rs2032582 GG, N=35, mean ± SD",0.12 ± 0.07 mg/kg
same,Analges. % (analgesic interventions %),[6],75%
same,Maximum FLACC,[6],8 (2-9)
same,Post-Operative morphine,"Blacks, ABCB1 Rs2032582 GT, N=8, mean ± SD",0.11 ± 0.04 mg/kg
same,Analges. % (analgesic interventions %),[7],100%
same,Maximum FLACC,[7],8 (8-8)
same,Post-Operative morphine,[7],0.04 mg/kg
same,Analges. % (analgesic interventions %),[8],88%
same,Maximum FLACC,[8],5 (3-8)
same,Post-Operative morphine,"Blacks, ABCB1 Rs2229109 CC, N=43, mean ± SD",0.12 ± 0.06 mg/kg
same,Analges. % (analgesic interventions %),[9],88%
same,Maximum FLACC,[9],5 (3-8)
same,Post-Operative morphine,"Blacks, ABCB1 Rs9282564 AA, N=41, mean ± SD",0.12 ± 0.07 mg/kg
same,Analges. % (analgesic interventions %),[10],100%
same,Maximum FLACC,[10],8 (8-10)
same,Post-Operative morphine,"Blacks, ABCB1 Rs9282564 GA, N=3, mean ± SD",0.10 ± 0.00 mg/kg
same,Analges. % (analgesic interventions %),[11],89%
same,Maximum FLACC,[11],5 (4-8)
same,Post-Operative morphine,"Blacks, ABCB1 rs10456542 CC, N=27, mean ± SD",0.12 ± 0.07 mg/kg
same,Analges. % (analgesic interventions %),[12],86%
same,Maximum FLACC,[12],7 (1-8)
same,Post-Operative morphine,"Blacks, ABCB1 rs10456542 TC, N=14, mean ± SD",0.12 ± 0.05 mg/kg
same,Analges. % (analgesic interventions %),[13],100%
same,Maximum FLACC,[13],8 (3-8)
same,Post-Operative morphine,"Blacks, ABCB1 rs10456542 TT, N=3, mean ± SD",0.12 ± 0.11 mg/kg
same,Analges. % (analgesic interventions %),[14],57%
same,Maximum FLACC,[14],3 (0-5)
same,Post-Operative morphine,"Whites, ABCB1 Rs1128503 CC, N=70, mean ± SD",0.09 ± 0.04 mg/kg
same,Analges. % (analgesic interventions %),[15],57%
same,Maximum FLACC,[15],2 (0-5)
same,Post-Operative morphine,"Whites, ABCB1 Rs1128503 TC, N=102, mean ± SD",0.10 ± 0.05 mg/kg
same,Analges. % (analgesic interventions %),[16],53%
same,Maximum FLACC,[16],1 (0-5)
same,Post-Operative morphine,"Whites, ABCB1 Rs1128503 TT, N=47, mean ± SD",0.08 ± 0.04 mg/kg
same,Analges. % (analgesic interventions %),[17],43%
same,Maximum FLACC,[17],2 (1-5)
same,Post-Operative morphine,"Whites, ABCB1 Rs2032582 GA, N=7, mean ± SD",0.09 ± 0.05 mg/kg
same,Analges. % (analgesic interventions %),[18],58%
same,Maximum FLACC,[18],4 (0-6)
same,Post-Operative morphine,"Whites, ABCB1 Rs2032582 GG, N=65, mean ± SD",0.09 ± 0.04 mg/kg
same,Analges. % (analgesic interventions %),[19],57%
same,Maximum FLACC,[19],2 (0-5)
same,Post-Operative morphine,"Whites, ABCB1 Rs2032582 GT, N=100, mean ± SD",0.09 ± 0.05 mg/kg
same,Analges. % (analgesic interventions %),[20],100%
same,Maximum FLACC,[20],8 (8-8)
same,Post-Operative morphine,[20],0.21 mg/kg
same,Analges. % (analgesic interventions %),[21],52%
same,Maximum FLACC,[21],1 (1-5)
same,Post-Operative morphine,"Whites, ABCB1 Rs2032582 TT, N=46, mean ± SD",0.09 ± 0.04 mg/kg
same,Analges. % (analgesic interventions %),[22],50%
same,Maximum FLACC,[22],2 (1-4)
same,Post-Operative morphine,"Whites, ABCB1 Rs2229109 CA, N=14, mean ± SD",0.06 ± 0.02 mg/kg
same,Analges. % (analgesic interventions %),[23],57%
same,Maximum FLACC,[23],2 (0-5)
same,Post-Operative morphine,"Whites, ABCB1 Rs2229109 CC, N=205, mean ± SD",0.09 ± 0.05 mg/kg
same,Analges. % (analgesic interventions %),[24],56%
same,Maximum FLACC,[24],2 (0-5)
same,Post-Operative morphine,"Whites, ABCB1 Rs9282564 AA, N=171, mean ± SD",0.09 ± 0.04 mg/kg
same,Analges. % (analgesic interventions %),[25],54%
same,Maximum FLACC,[25],2 (0-4)
same,Post-Operative morphine,"Whites, ABCB1 Rs9282564 GA, N=46, mean ± SD",0.09 ± .05 mg/kg
same,Analges. % (analgesic interventions %),[26],100%
same,Maximum FLACC,[26],7 (6-7)
same,Post-Operative morphine,"Whites, ABCB1 Rs9282564 GG, N=2, mean ± SD",0.16 ± 0.07 mg/kg
same,Analges. % (analgesic interventions %),[27],63%
same,Maximum FLACC,[27],4 (0-6)
same,Post-Operative morphine,"Whites, ABCB1 rs10456542 CC, N=49, mean ± SD",0.09 ± 0.03 mg/kg
same,Analges. % (analgesic interventions %),[28],52%
same,Maximum FLACC,[28],2 (0-4)
same,Post-Operative morphine,"Whites, ABCB1 rs10456542 TC, N=100, mean ± SD",0.09 ± 0.05 mg/kg
same,Analges. % (analgesic interventions %),[29],57%
same,Maximum FLACC,[29],2 (1-5)
same,Post-Operative morphine,"Whites, ABCB1 rs10456542 TT, N=70, mean ± SD",0.10 ± 0.05 mg/kg
same,post-operative morphine in patients who needed intervention,average,0.10 ± 0.05 mg/kg
